From article PMC9436859, “Chromatographic separation of glycated peptide isomers derived from glucose and fructose” (Analytical and Bioanalytical Chemistry, 2022)
One block for each substance: values may come before it.

Key:
Type in all cases: physicochemical
[1] = RP-HPLC retention at neutral pH, Synergi Fusion RP, potassium phosphate; conditions: potassium phosphate 10 mmol/L pH 7.2, 60 °C, UV 214 nm; for retention time (tr): Synergi Fusion RP, family #2 mixture (Fig. S10)
Experimental: (§1) Separations used either a Synergi Fusion-RP C18 column (ID: 2 mm, length: 150 mm, particle size: 4 µm, pore size: 80 Å, Phenomenex) or Aqua C18 column (ID: 2 mm, length: 150 mm, particle size: 3 µm, pore size: 125 Å, Phenomenex) using a System Gold HPLC equipped with a 507e autosampler (100 µL injection volume), a 125NM binary gradient pump, and a 166 UV/VIS detector. Eluents were water (eluent B1) and aqueous acetonitrile (60% v/v, eluent B2 or 40% v/v, eluent B3) containing sodium or potassium phosphate buffer or ammonium acetate (10 mmol/L). Eluents were prepared from aqueous stock solutions (0.1 mol/L) adjusted to pH 7.2, in case of ammonium acetate with ammonia. Solvents were filtered (pore size, 0.2 µm; Pall Corp., Ann Arbor, MI) and sonicated for 15 min prior to use. Peptides were eluted using a linear acetonitrile gradient from either 5 to 95% eluent B2 in 30 min, 5 to 70% eluent B2 in 65 min, or 7.5 to 95% eluent B3 in 58 min. Unless otherwise indicated, separations were performed at 60 °C with a flow rate of 0.2 mL/min and the absorbance was recorded at 214 nm. Fractions were analyzed by matrix-assisted laser desorption/ionization time-of-flight MS (MALDI-TOF/TOF–MS) on a 5800 proteomic analyzer (ABSciex GmbH, Darmstadt, Germany) operating in reflector mode and using a solution of α-cyano-4-hydroxycinnamic acid (4 g/L) in eluent A2 as matrix.

[2] = RP-HPLC retention at neutral pH, Aqua C18, sodium phosphate; conditions: Aqua C18 (3 µm, 125 Å), sodium phosphate 10 mmol/L pH 7.2, 0.6% acetonitrile/min, 60 °C, UV 214 nm, mixture of family #2, order from individual injections
Experimental: as §1

[3] = IP-RP-HPLC retention, Jupiter C18, 0.1% TFA; conditions: 60 °C, UV 214 nm
Experimental: Separations used a Jupiter C18 column (ID: 2 mm, length: 150 mm, particle size: 5 µm, pore size: 300 Å, Phenomenex) and a System Gold HPLC equipped with a 508 autosampler (100 µL injection volume), a 125NM binary gradient pump, and a UV detector (Knauer GmbH, Berlin, Germany). Eluents were 0.1% (v/v) TFA (eluent A1) and 60% (v/v) aqueous acetonitrile containing 0.1% (v/v) TFA (eluent A2). Peptides were eluted using a linear acetonitrile gradient from either 5 to 95% eluent A2 in 30 min or 5 to 60% eluent A2 in 55 min. Separations were performed at a column temperature of 60 °C with a flow rate of 0.2 mL/min, and the absorbance was recorded at 214 nm. Separations were performed twice with deviations of the retention times of ~ 0.2 min for the shallow gradient.

[4] = RP-HPLC retention at neutral pH, Synergi Fusion RP, sodium phosphate; conditions: linear 65-min gradient 3 to 42% acetonitrile, sodium phosphate 10 mmol/L pH 7.2, 60 °C, UV 214 nm, family mixture
Experimental: as §1

[5] = nanoUPLC-ESI-Orbitrap-MS retention, BEH C18, 0.1% formic acid; conditions: nanoRP-UPLC, 30 °C, XIC; for retention time (tr): Acquity BEH C18 (1.7 µm), 87-min gradient 3 to 40% acetonitrile, glycated peptide mixture, 500 fmol each, glucated peptide or glucosyl-lysine species of the fructated peptide; for retention time (tr), mannosyl-lysine species: Acquity BEH C18, 87-min gradient 3 to 40% acetonitrile, second peak of the fructated peptide (mannosyl-lysine)
Experimental: Peptides were analyzed on a nanoAcquity UPLC (Waters GmbH) coupled on-line to an LTQ Orbitrap XL ETD mass spectrometer equipped with a nano-ESI source (Thermo Fisher Scientific GmbH, Bremen, Germany) operated in positive ion mode. Eluents were aqueous formic acid (0.1% v/v; eluent D1) and acetonitrile-containing formic acid (0.1% v/v; eluent D2). Peptides (10 µL, 500 fmol each) were trapped on a nanoAcquity Symmetry C18 column (ID: 180 μm, length: 2 cm, particle diameter: 5 μm) at a flow rate of 5 μL/min (3% eluent D2). Separation was achieved on a BEH 130 column (C18 phase, ID: 75 μm, length: 10 cm, particle diameter: 1.7 μm) using a flow rate of 0.4 μL/min and a column temperature of 30 °C. Peptides were eluted with two linear gradients from 3 to 40% eluent D2 in 87 min and then to 85% eluent D2 in 5 min. The transfer capillary temperature was set to 200 °C, and an ion spray voltage of 1.4 kV was applied to a PicoTip™ on-line nano-ESI emitter (New Objective, Berlin, Germany). Mass spectra (m/z range 400 to 2000) were recorded in the Orbitrap mass analyzer at a resolution of 60,000 at m/z 400. Tandem mass spectra were acquired in CID mode (isolation width 2 m/z units, normalized collision energy 35%, activation time 30 ms, default charge state 2, intensity threshold of 500 counts) using data-dependent acquisition (DDA) for the six most intense signals with a dynamic exclusion window of 60 s.

[6] = Jupiter C18, 0.1% TFA, 0.6% acetonitrile/min, family injected as a mixture (Fig. S3F)

Substance: AEFAEVSKAmaLVTDLTK [6B, glucated (Amadori) tryptic peptide HSA A226-K240, K233]
retention time [3, 6]: 52.2 min
retention time (tr) [4]: 45.3 min
retention time (tr) [5]: 56.0 min

Substance: AEFAEVSKHeyLVTDLTK [6C, fructated (Heyns) tryptic peptide HSA A226-K240, K233]
retention time [3, 6]: 51.9 min
retention time (tr) [4]: 43.4 min
retention time (tr) [5]: 55.7 min
retention time (tr), mannosyl-lysine species [5]: 56.3 min

Substance: EQLKAmaAVMDDFAAFVEK [7B, glucated (Amadori) tryptic peptide HSA E542-K557, K545]
retention time (tr) [5]: 59.5 min

Substance: EQLKHeyAVMDDFAAFVEK [7C, fructated (Heyns) tryptic peptide HSA E542-K557, K545]
retention time (tr) [5]: 59.5 min
retention time (tr), mannosyl-lysine species [5]: 60.2 min

Further lines, results first:

retention time (tr) [1]: 32.9 min
retention time (tr) [2]: 38.0 min
Substance: ADLAKAmaYIC*ENQDSISSK [2B, glucated (Amadori) tryptic peptide HSA A258-K274, K262]

retention time (tr) [1]: 31.4 min
retention time (tr) [2]: 36.5 min
Substance: ADLAKHeyYIC*ENQDSISSK [2C, fructated (Heyns) tryptic peptide HSA A258-K274, K262]

retention time ([3]; Jupiter C18 (5 µm, 300 Å), 0.1% TFA, 5 to 60% eluent A2 in 55 min (0.6% acetonitrile/min), 0.2 mL/min, performed twice, deviations ~0.2 min): 27.6 min
acetonitrile content at elution ([3]; Jupiter C18, 0.1% TFA, 0.6% acetonitrile/min): ~ 13%
Substance: AVGDKHeyLPEC*EAVC*GKPK [1C, fructated (Heyns) tryptic peptide HP A77-K93, glycation site K81]

retention time ([1]; new Synergi Fusion RP column, 58-min gradient 3 to 38% acetonitrile (eluent B3, 0.6%/min)): 26.2 min
Substance: TC*VADESAENC*DKHeySLHTLFGDK [3C, fructated (Heyns) tryptic peptide HSA T52-K73, K64]
